Source: patent US4772586A, “Novel derivatives of arginine vasopressin antagonists” (Medical College of Ohio, priority 1986, dated 1988)
*1 amine or outer side, *2 acyl side, *3 side chain or, on linkers, in order; H or OH if unused. Where a SMILES comes first, the peptide text is derived from it. Bridges are numbered along the chain shown (N, C = ends). Where no end group is shown, it is not given here. [ ]: non-standard residue; d: D form. X1 = O=C(CC1(S[*:2])CCCCC1)[*:1]; Sar = CNCC(=O)O

Tests used:
[1] = tested on: ethanol-anesthesized water-loaded rats; assay: Activity as antidiuretic agonists, intravenous injection; assay type: in vivo; settings: for Agonistic Activities ADH: Table 1, antidiuretic agonism, i.v., ^+ = weak partial agonistic activity not clearly related to dose
Procedure: Activity as antidiuretic agonists was determined by intravenous injection of the compounds being evaluated in ethanol-anesthesized water-loaded rats in accordance with Sawyer, Endocrinology, vol. 63 (1958) at 694. Antagonism of the antidiuretic response to subsequent injections of arginine vasopressin was tested by the method of Sawyer et al., Science, vol. 212 (1981) at 49.

vasopressor response = assay: Vasopressor (VP) agonistic activity; assay type: in vivo; settings: Table 1; vasopressor agonism; ^+ = weak partial agonistic activity not clearly related to dose
[2] = tested on: vasopressor response to arginine vasopressin; assay: Antagonism to the vasopressor response (Anti-VP); assay type: in vivo
In short: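 In vivo antagonism of arginine vasopressin pressor response per Dyckes et al. Effective dose (nmol/kg) is the antagonist dose making the response to 2x agonist units, injected 20 min later, equal that to 1x units. pA2 is the negative log of effective dose divided by 67 ml/kg distribution volume.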

[3] = tested on: antidiuretic response to arginine vasopressin; assay: Antagonism of the antidiuretic response to arginine vasopressin (Anti-ADH); assay type: in vivo, rats; settings: for Anti-ADH pA2: Table 1, estimated in vivo pA2 = negative log of effective dose divided by volume of distribution (67 ml/kg)
In short: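 Compounds were given intravenously to ethanol-anesthetized, water-loaded rats, followed by arginine vasopressin challenge. Effective dose (nmol/kg) is the antagonist dose that reduces the response to 2x units of agonist, given 20 min later, to the response to 1x units. pA2 is the negative log of effective dose divided by an estimated 67 ml/kg distribution volume.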

## 9-desglycinamide-arginine vasopressin (CYFQNCPR; disulfide 1-6 (inferred); ends not checked; UniProt P01185 20-27, looked up, fragment) [desGly^9 (NH2)AVP]
[1]
  Agonistic Activities ADH: 5.6 ± 1.1 units/mg
Vasopressor response
  Agonistic Activities VP: ~ 0.02 units/mg

## 9-desglycine-argoinine vasopressin (CYFQNCPR; disulfide 1-6 (inferred); ends not checked; UniProt P01185 20-27, looked up, fragment) [desGly^9 AVP]
[1]
  Agonistic Activities ADH: 164 ± 4 units/mg
Vasopressor response
  Agonistic Activities VP: < 0.05 units/mg
[2]; Table 1, effective dose
  Anti-VP ED: 68 ± 16 nmol/kg
[2]; Table 1, estimated in vivo pA2
  Anti-VP pA2: 6.09 ± 0.10

## NC(=O)CC[C@@H]1NC(=O)[C@H](Cc2ccccc2)NC(=O)[C@H](Cc2ccc(O)cc2)NC(=O)[C@@H](N)CSSC[C@@H](C(=O)N2CCC[C@H]2C(=O)N[C@@H](CCCN=C(N)N)C(=O)NCC(N)=O)NC(=O)[C@H](CC(N)=O)NC1=O [AVP, arginine vasopressin]
[1]
  Agonistic Activities ADH: 330 ± 23 units/mg
Vasopressor response
  Agonistic Activities VP: 382 ± 5 units/mg

## CCOc1ccc(C[C@@H]2NC(=O)CC3(CCCCC3)SSC[C@@H](C(=O)N3CCC[C@H]3C(=O)N[C@@H](CCCNC(=N)N)C(=O)NCC(N)=O)NC(=O)[C@H](CC(N)=O)NC(=O)[C@H](C(C)C)NC(=O)[C@H](Cc3ccccc3)NC2=O)cc1 [d(CH2)5 [Tyr(Et)]^2 VAVP, [1-(beta-mercapto-beta,beta-cyclopentamethylenepropionic acid), 2-(O-ethyl)tyrosine, 4-valine]-arginine vasopressin, reference compound] (Y(Et)FVNCPRG-NH2; linker N-5 via X1)
[3]
  Anti-ADH pA2: 7.57 ± 0.06
[2]; Table 1, estimated in vivo pA2
  Anti-VP pA2: 8.16 ± 0.09

## CNC(=O)CN(C)C(=O)[C@H](CCCNC(=N)N)NC(=O)[C@@H]1CCCN1C(=O)[C@@H]1CSSC2(CCCCC2)CC(=O)N[C@@H](Cc2ccc(OC)cc2)C(=O)N[C@@H](Cc2ccccc2)C(=O)N[C@@H](CCC(N)=O)C(=O)N[C@@H](CC(N)=O)C(=O)N1 [d(CH2)5 [Tyr(Me)^2, Sar(NHMe)^9]AVP, [1-(beta-mercapto-beta,beta-cyclopentamethylenepropionic acid), 2-O-methyltyrosine, 9-sarcosine-N-methylamide]-arginine vasopressin] (Y(Me)FQNCPR[Sar]-NHMe; linker N-5 via X1)
[3]; Table 4, estimated in vivo pA2
  Anti-ADH Potency pA2: ~ 5.5
[2]; Table 4, estimated in vivo pA2, ^+ = mixed
  Anti-VP Potency pA2: 8.31 ± 0.03

## CC(C)[C@@H]1NC(=O)[C@H](Cc2ccccc2)NC(=O)[C@@H](Cc2ccccc2)NC(=O)CC2(CCCCC2)SSC[C@@H](C(=O)N2CCC[C@H]2C(=O)N[C@@H](CCCNC(=N)N)C(=O)NCC(N)=O)NC(=O)[C@H](CC(N)=O)NC1=O [d(CH2) 5 [D-Phe^2]VAVP, [1-(beta-mercapto-beta,beta-cyclopentamethylenepropionic acid), 2-D-phenylalanine, 4-valine]-arginine vasopressin, reference compound] ([dF]FVNCPRG-NH2; linker N-5 via X1)
[3]
  Anti-ADH pA2: 8.06 ± 0.09
[2]; Table 1, estimated in vivo pA2
  Anti-VP pA2: 8.06 ± 0.03

## CC(C)[C@@H]1NC(=O)[C@H](Cc2ccccc2)NC(=O)[C@@H](Cc2ccccc2)NC(=O)CC2(CCCCC2)SSC[C@@H](C(=O)N2CCC[C@H]2C(=O)N[C@@H](CCCNC(=N)N)C(=O)O)NC(=O)[C@H](CC(N)=O)NC1=O [desGly(NH2)^9 d(CH2)5 [D-Phe^2]VAVP, [1-(beta-mercapto-beta,beta-cyclopentamethylenepropionic acid), 2-D-phenylalanine, 4-valine, 9-desglycinamide]-arginine vasopressin] ([dF]FVNCPR-OH; linker N-5 via X1)
[3]
  Anti-ADH pA2: 7.75 ± 0.11
[2]; Table 1, estimated in vivo pA2
  Anti-VP pA2: 7.93 ± 0.05

## CCOc1ccc(C[C@H]2NC(=O)CC3(CCCCC3)SSC[C@@H](C(=O)N3CCC[C@H]3C(=O)N[C@@H](CCCNC(=N)N)C(=O)O)NC(=O)[C@H](CC(N)=O)NC(=O)[C@H](C(C)C)NC(=O)[C@H](Cc3ccccc3)NC2=O)cc1 [desGly(NH2)^9 d(CH2)5 [D-Tyr(Et)^2]VAVP, [1-(beta-mercapto-beta,beta-cyclopentamethylenepropionic acid), 2-D-(O-ethyl)tyrosine, 4-valine, 9-desglycinamide]-arginine vasopressin] ([dY](Et)FVNCPR-OH; linker N-5 via X1)
[3]
  Anti-ADH pA2: 7.78 ± 0.03
[2]; Table 1, estimated in vivo pA2
  Anti-VP pA2: 7.77 ± 0.02

## COc1ccc(C[C@@H]2NC(=O)CC3(CCCCC3)SSC[C@@H](C(=O)N3CCC[C@H]3C(=O)N[C@@H](CCCNC(=N)N)C(=O)O)NC(=O)[C@H](CC(N)=O)NC(=O)[C@H](CCC(N)=O)NC(=O)[C@H](Cc3ccccc3)NC2=O)cc1 [desGly(NH2)^9 d(CH2)5 [Tyr(Me)^2]AVP] (Y(Me)FQNCPR-OH; linker N-5 via X1)
[3]
  Anti-ADH pA2: ~ 5.4
[2]; Table 1, estimated in vivo pA2
  Anti-VP pA2: 8.46 ± 0.05

## CC[C@H](C)[C@@H]1NC(=O)[C@H](Cc2ccccc2)NC(=O)[C@@H](Cc2ccccc2)NC(=O)CC2(CCCCC2)SSC[C@@H](C(=O)N2CCC[C@H]2C(=O)N[C@@H](CCCNC(=N)N)C(N)=O)NC(=O)[C@H](CC(N)=O)NC1=O [desGly^9 d(CH2)5 [D-Phe^2,Ile^ 4]AVP, [1-(beta-mercapto-beta,beta-cyclopentamethylenepropionic acid), 2-D-phenylalanine, 4-isoleucine, 9-desglycine]-arginine vasopressin] ([dF]FINCPR-NH2; linker N-5 via X1)
[3]
  Anti-ADH pA2: 8.05 ± 0.09
[2]; Table 1, estimated in vivo pA2
  Anti-VP pA2: 7.84 ± 0.03

## CC(C)[C@@H]1NC(=O)[C@H](Cc2ccccc2)NC(=O)[C@@H](Cc2ccccc2)NC(=O)CC2(CCCCC2)SSC[C@@H](C(=O)N2CCC[C@H]2C(=O)N[C@@H](CCCNC(=N)N)C(N)=O)NC(=O)[C@H](CC(N)=O)NC1=O [desGly^9 d(CH2)5 [D-Phe^2]VAVP, [1-(beta-mercapto-beta,beta-cyclopentamethylenepropionic acid), 2-D-phenylalanine, 4-valine, 9-desglycine]-arginine vasopressin] ([dF]FVNCPR-NH2; linker N-5 via X1)
[3]
  Anti-ADH pA2: 8.09 ± 0.08
[2]; Table 1, estimated in vivo pA2
  Anti-VP pA2: 8.15 ± 0.03

## CCOc1ccc(C[C@H]2NC(=O)CC3(CCCCC3)SSC[C@@H](C(=O)N3CCC[C@H]3C(=O)N[C@@H](CCCNC(=N)N)C(N)=O)NC(=O)[C@H](CC(N)=O)NC(=O)[C@H](C(C)C)NC(=O)[C@H](Cc3ccccc3)NC2=O)cc1 [desGly^9 d(CH2)5 [D-Tyr(Et)^2]VAVP, [1-(beta-mercapto-beta,beta-cyclopentamethylenepropionic acid), 2-D-(O-ethyl)tyrosine, 4-valine, 9-desglycine]-arginine vasopressin] ([dY](Et)FVNCPR-NH2; linker N-5 via X1)
[3]
  Anti-ADH pA2: 7.69 ± 0.08
[2]; Table 1, estimated in vivo pA2
  Anti-VP pA2: 8.17 ± 0.04

## CCOc1ccc(C[C@@H]2NC(=O)CC3(CCCCC3)SSC[C@@H](C(=O)N3CCC[C@H]3C(=O)N[C@@H](CCCNC(=N)N)C(N)=O)NC(=O)[C@H](CC(N)=O)NC(=O)[C@H](C(C)C)NC(=O)[C@H](Cc3ccccc3)NC2=O)cc1 [desGly^9 d(CH2)5 [Tyr(Et)^2]VAVP, [1-(beta-mercapto-beta,beta-cyclopentamethylenepropionic acid), 2-(O-ethyl)tyrosine, 4-valine, 9-desglycine]-arginine vasopressin] (Y(Et)FVNCPR-NH2; linker N-5 via X1)
[3]
  Anti-ADH pA2: 7.89 ± 0.09
[2]; Table 1, estimated in vivo pA2
  Anti-VP pA2: 8.18 ± 0.02

## COc1ccc(C[C@@H]2NC(=O)CC3(CCCCC3)SSC[C@@H](C(=O)N3CCC[C@H]3C(=O)N[C@@H](CCCNC(=N)N)C(N)=O)NC(=O)[C@H](CC(N)=O)NC(=O)[C@H](CCC(N)=O)NC(=O)[C@H](Cc3ccccc3)NC2=O)cc1 [desGly^9 d(CH2)5 [Tyr(Me)^2]AVP, [1-(beta-mercapto-beta,beta-cyclopentamethylenepropionic acid), 2-(O-methyl)tyrosine, 9-desglycine]-arginine vasopressin] (Y(Me)FQNCPR-NH2; linker N-5 via X1)
[3]
  Anti-ADH pA2: ~ 6.1
[2]; Table 1, estimated in vivo pA2
  Anti-VP pA2: 8.44 ± 0.10

## deamido-arginine vasopressin (CYFQNCPRG-OH; disulfide 1-6 (inferred); ends not checked; UniProt P01185 20-28, looked up) [AVP-acid, purchased from Bachem, Inc; alternatively, vasopressinoic acid]
[1]
  Agonistic Activities ADH: 4.7 ± 0.6 units/mg
[1]; Table 1 footnote b
  antidiuretic character in vivo: antidiuretic agonist in vivo
Vasopressor response
  Agonistic Activities VP: < 0.03 units/mg
